“Also recorded” adds a separate entry of the source.
How the values were obtained:
lipid deposits = assay: Oil red O histochemistry of lipid deposits; type: in vivo, mouse
Experimental: Tissue-mounted slides were processed to evaluate lipid distribution with light microscopy with a protocol adapted from Dr. Roy Ellis (IMVS Division of Pathology, The Queen Elizabeth Hospital, Woodville, South Australia). First, an oil red O stock solution was prepared 2 hours prior to execution of the histochemical procedures. The oil red O stock stain solution was made by mixing oil red O (0.5 g, Sigma-Aldrich, Oakville, ON, Canada) and isopropanol (100 mL, Fisher Scientific, Nepean, ON, Canada) over a 40° C. water bath. Immediately prior to beginning the oil red O histochemical procedures, the oil red O working solution was made by combining 20 mL of distilled water for every 30 mL of oil red O stock stain solution. […] Slide-mounted sections were rinsed in coplin jars for 15 minutes at RT in three changes of PBS. Sections were then rinsed at RT with 60% isopropanol for 5 minutes. The spinal cord sections were then stained with a freshly prepared working solution of oil red O for 20 minutes and then rinsed with 60% isopropanol. Nuclear counterstaining was achieved by staining the sections with haematoxylin (haematoxylin, 7211, Richard Allan Scientific, Kalamazoo, Mich., USA) for 1 minute. Finally, the sections were rinsed with distilled water, dried under a fume hood and cover-slipped with Entellen (Merck, Darmstadt, Germany).
(§1) The numbers of immunoreactive somata or inclusions were counted across the ventral horn of the spinal cord, across brain hemispheres, or per dorsal or ventral root with the 40× objective lens in a 600 μm/600 μm area within region perimeters defined by a mouse brain atlas (2001). For each animal, eight cross-sections per spinal cord or brain region were studied. An average of both the right and left ventral horn for each of the eight cross sections was generated giving a final averaged number for each animal in each of the spinal cord areas. For quantification of the level of mitochondrial activity (cytochrome c oxidase labelling) in the lumbar spinal cord or tyrosine hydroxylase immunoreactivity in the substantia nigra pars compacta and striatal sections, images captured using the Motic B5 Professional Series 3.0 microscope (Motic Instruments Inc., Richmond, ON) and analyzed using Motic B5 Professional, Motic Images Advanced 3.0 (Motic Instruments Inc., Richmond, ON) were scanned into a TIFF format file and analysed using the NIH Image J 1.37 software to measure density levels of antibody labelling. Eight to 12 sections from each mouse per region of interest were included.

Cytochrome c oxidase = Cytochrome c oxidase histochemistry; type: in vivo, mouse; details: SG-fed vs control
Experimental: Tissue-mounted slides were processed for […] in a manner adapted from (Seligman et al., J. Cell. Biol. 1968; 38: 1-14) and Wong-Riley, (1979), Brain Res. 171, 11-28. Sections were rinsed in coplin jars for 15 minutes at RT in three changes of PBS and subsequently incubated with a media comprised of 50 mg of 3,3′-diaminobenzidine tetrahydrochloride (DAB) (DAB substrate system, Vector Laboratories, Burlingame, Calif., USA), 90 mL 0.1M phosphate buffer, 20 mg cytochrome c (type III, Sigma-Aldrich Co., Oakville, ON, Canada), and 4 g of sucrose in a dish submerged in a water bath maintained at 37° C. in the dark for 2 hours. The sections were monitored closely for the brown reaction product to appear within the tissue. Once a medium-brown color was achieved, slides were removed from the incubation media and rinsed for 15 minutes in three changes of PBS to stop the reaction. This was followed with a 2 minutes rinse in distilled water to remove residue from the slides. The slides were dried under a fume hood and cover-slipped with Entellen (Merck, Darmstadt, Germany).
as §1, with “An average of both the right and left ventral horn for each of the eight cross sections was generated giving a final averaged number for each animal in each of the spinal cord areas.” left out, “Eight to 12 sections from each mouse per region of interest were included.” left out

For `CC[C@H](/C=C/[C@@H](C)[C@H]1CC[C@H]2[C@@H]3CC=C4C[C@@H](O[C@@H]5O[C@H](CO)[C@@H](O)[C@H](O)[C@H]5O)CC[C@]4(C)[C@H]3CC[C@]12C)C(C)C` [SG, Stigmasterol β-D-Glucopyranoside], the “Lipid deposits DR over time” value (lipid deposits; SG-fed over time (35 to 52 wk)) was “did not show time-dependent effects; also recorded: SG-fed DR over time: ns, p = 0.8062”, the “Lipid deposits Lsc over time” value (lipid deposits; SG-fed over time (35 to 52 wk)) was “did not experience an accumulation of deposits over time; also recorded: SG-fed Lsc over time: ns, p = 0.4864” and the “Lipid deposits VR over time” value (lipid deposits; SG-fed over time (35 to 52 wk)) was “did not show time-dependent effects; also recorded: SG-fed VR over time: ns, p = 0.5478”. The “Lipids in dorsal roots” value (lipid deposits; SG-fed vs control, 35 weeks) was “not significant”, the “Lipids in ventral spinal roots, change” value (lipid deposits; SG-fed vs control, 35 weeks) was “+10%” and the “Lipids in dorsal root” value (lipid deposits; SG-fed vs control, 52 weeks) was “statistically significant inter-group differences were not found”. For the same compound, the “Lipids in ventral root” value (lipid deposits; SG-fed vs control, 52 weeks) was “statistically significant inter-group differences were not found”, the “Number and size of lipid deposits” value (lipid deposits; lumbar spinal cord and ventral roots, SG-fed vs control) was “greater” and the “Cytochrome c oxidase activity” value (Cytochrome c oxidase; Time-point 1 (35 wk)) was “(ns)”. For the same compound, the “Cytochrome c oxidase activity” value (Cytochrome c oxidase; Time-point 2 (52 wk)) was “(ns)” and the “Cytochrome c oxidase activity, difference between groups” value (Cytochrome c oxidase; at 35 or 52 weeks) was “no significant differences”.

From patent US9573972B2, “Nurotoxic sterol glycosides” (priority 2008, dated 2017)
